Data reported in patent US20130315886A1, “RETROELEMENTS AND MENTAL DISORDERS AND METHODS OF MEASURING L1 RETROTRANSPOSITION” (Salk Institute for Biological Studies, priority 2009, published 2013).

Experiments:
[1] = tested on: MeCP2 and Sox2; experiment: Co-immunoprecipitation between MeCP2 and Sox2 in NSCs; type: cell-based, rat; conditions: in the presence of 5-Aza
Method: Immunofluorescence for EGFP was performed as previously described (11). A non-transgenic animal was used to measure the background fluorescence in the brain and to establish a threshold for detection. Western blotting was carried out using standard protocols with the following antibodies: mouse anti-Actin (1/500, Ambion), rabbit anti-MeCP2 (1/1000, Imgenex or Upstate), and rabbit anti-Sox2 (1/100, Chemicon). All secondary antibodies were purchased from Jackson ImmunoResearch. For co-immunoprecipitation, the Nuclear Complex Co-IP kit (Active Motif) was used, following the manufacturer's protocol with the highest stringency buffers.

[2] = tested on: L1 5′UTR CpG islands; experiment: Bisulfite analysis of L1 5′UTR DNA methylation in NSCs; type: cell-based, rat; conditions: treatment for 4-days
Method: Genomic DNA from NSCs was isolated using standard phenol-chloroform extraction techniques. Subsequently, DNA was digested with the restriction enzyme EcoRI and the bisulfite conversion reaction was performed using the Epitect kit (Quiagen), following manufacturer's instructions. Primers were designed based on the rat L1 sequence Mlvi2, using Methyl Primer Express; […]. PCR products were cloned into TOPO TA 2.1 plasmids (Invitrogen) and 40 bacterial colonies were analyzed by sequencing.

[3] = tested on: L1 promoter region (5′UTR); experiment: Chromatin immunoprecipitation (ChIP) on the endogenous rat L1 promoter region in NSCs; type: cell-based; conditions: 500 ng/ml, 4 days
Source text: ChIP assay was done essentially following the manufacturer's protocol using a ChIP assay kit (Upstate). Antibodies used were anti-MeCP2 (Upstate), Sox2 (Chemicon), and IgG. Purified DNA was amplified by PCR using primers for the rat L1 5′UTR promoter region (L1.3, accession # X03095).

[4] = tested on: L1 5′UTR promoter; experiment: L1 5′UTR-Luc luciferase reporter assay in MeCP2 KO neuroepithelial cells; type: cell-based, mouse; conditions: Sox2 overexpression in MeCP2 KO neuroepithelial cells
Method: Rat NSCs were isolated, characterized and cultured as described (31,32). For neuronal differentiation, cells were cultured in N2 medium (Invitrogen) containing retinoic acid (RA, 1 μM, Sigma) and forskolin (5 μM, Sigma) for 4 days (11). Freshly isolated neuroepithelial cells from time-pregnant midgestation (E11.5) telencephalons from WT and MeCP2 KO sibling mouse embryos from the same background (C57BL/6J) were briefly cultured for 2-3 passages in FGF-2 as described elsewhere (19). Primary skin fibroblasts were isolated from tail biopsy and cultured in DMEM (Invitrogen) with 10% FBS (Invitrogen). Samples of all isolated cells were used for genotyping using previously described primers (33). Plasmid transfections were done by electroporation following the manufacturer's instructions (Amaxa Biosystem).
The L1 5′UTR-Luc plasmid was methylated by […] according to the manufacturer's protocol. Complete methylation was checked by digestion with Hpa II restriction enzyme. Luciferase activity was measured with the Dual-Luciferase reporter assay system (Promega) according to the manufacturer's protocol. Luciferase activity was usually measured 48 h after transfection. A plasmid containing the Renilla luciferase gene was used as an internal control. All the experiments were done at least 3 times independently and transfection efficiency was about 30% for all samples. […]

Compound | amount of MeCP2 in association with Sox2 in solution (Co-IP) [1] | methylation of the 5′UTR L1 region (5 CpG sites, bisulfite) [2] | MeCP2 ChIP signal / association to the L1 promoter region [3] | Sox2 binding / association to the L1 promoter region (ChIP) [3] | MeCP2 ChIP signal / association to the L1 promoter region ([3]; listed as 5-Azacitidine) | Sox2 binding / association to the L1 promoter region (ChIP) ([3]; listed as 5-Azacitidine) | reduction of luciferase expression (L1 promoter activity) [4]
Nc1ncn([C@@H]2O[C@H](CO)[C@@H](O)[C@H]2O)c(=O)n1 [5-Azacytidine] | increased the amount of MeCP2 in association with Sox2 in solution | completely removed methyl radicals | the MeCP2 ChIP signal was lost | did not prevent Sox2 binding to the L1 promoter | reduced MeCP2 | not Sox2 association | 
Sox2: transcriptional factor Sox2, overexpressed in MeCP2 KO neuroepithelial cells |  |  |  |  |  |  | approximately 50%
